The structures appear in SMILES notation.

One test has as its system DNA polymerase. The conditions noted are these: eight termination assays, each with a different DNA polymerase; cited from earlier work.
Test [1] addresses T1, polymerase (Thermococcus sp. 9° N exo −Y409V A485L) (Thermococcus sp., UniProt Q56366, A485L/D141A/E143A/Y409V).
T1 construct: purchased New England Biolabs
The test can be described thus: Enzyme incorporation of 3′-blocked dNTPs on a P32-labelled DNA primer/template, followed by a chase with native nucleoside triphosphates. The format is biochemical. The procedure: To a 100 nM DNA primer/template (primer previously labelled with P32 and T4 polynucleotide kinase) in Tris-HCl pH 8.8 50 mM, Tween-20 0.01%, and MgSO4 4 mM, add 2 μM compound 6 and 100 nM polymerase (Thermococcus sp. 9° N exo ^−Y409V A485L supplied by New England Biolabs). The template consists of a run of 10 adenine bases to show the effect of the block. The reaction is heated to 65 C for 10 mins. To show complete blocking, a chase is performed with the four native, unblocked nucleoside triphosphates.
To a 100 nM DNA primer/template (primer previously labelled with P32 and T4 polynucleotide kinase) in Tris-HCl pH 8.8 50 mM, Tween-20 0.01%, and MgSO4 4 mM, add 2 μM compound 38 and 100 nM polymerase (Thermococcus sp. 9° N exo ^−Y409V A485L supplied by New England Biolabs). The template consists of a run of 10 adenine bases to show the effect of the block. The reaction is heated to 65 C for 10 mins. To show complete blocking, a chase is performed with the four native, unblocked nucleoside triphosphates.

Test [2] deals with T1, polymerase (Thermococcus sp. 9° N exo −Y409V A485L). The test can be described thus: Multiple cycles of incorporation, deblocking and capping on hairpin DNA attached to streptavidin beads, analysed by gel. The format is biochemical. To be noted: 2 μM FFN, 100 nM polymerase, 65° C. 10-15 minutes; deblocking with TCEP 0.1M, 65° C. 15 minutes. The method, then: By attaching a hairpin DNA (covalently attached self complementary primer/template) to a streptavidin bead The reaction can be performed over multiple cycles as shown in FIGS. 5 and 6.
Remove the storage buffer and wash the beads 3 times with TE buffer (Tris-HCl pH 8, 10 mM and EDTA, 1 mM). Resuspend in B & W buffer (10 mM Tris-HCl pH 7.5, 1 mM EDTA and 2.0 M NaCl), add biotinylated ^32P labelled hairpin DNA with appropriate overhanging template sequence. Allow to stand at room temperature for 15 minutes. Remove buffer and wash beads 3 times TE buffer.
To a solution of Tris-HCl pH 8.8 50 mM, Tween-20 0.01%, MgSO4 4 mM, MnCl2 0.4 mM (except cycle 1, 0.2 mM), add 2 μM FFN and 100 nM polymerase. This solution is then added to the beads and mixed thoroughly and incubated at 65° C. for 10-15 minutes. The reaction mixture is removed and the beads washed 3 times with TE buffer.
Tris-(2-carboxyethyl)phosphines trisodium salt (TCEP) (0.1M) is added to the beads and mixed thoroughly. The mixture was then incubated at 65° C. for 15 minutes. The deblocking solution is removed and the beads washed 3 times with TE buffer. […]
The reaction products can be analysed by placing the bead solution in the well of a standard 12% polyacrylamide DNA sequencing gel in 40% formamide loading buffer. […]

T1 sequence (Q56366 whole entry D141A/E143A/Y409V/A485L): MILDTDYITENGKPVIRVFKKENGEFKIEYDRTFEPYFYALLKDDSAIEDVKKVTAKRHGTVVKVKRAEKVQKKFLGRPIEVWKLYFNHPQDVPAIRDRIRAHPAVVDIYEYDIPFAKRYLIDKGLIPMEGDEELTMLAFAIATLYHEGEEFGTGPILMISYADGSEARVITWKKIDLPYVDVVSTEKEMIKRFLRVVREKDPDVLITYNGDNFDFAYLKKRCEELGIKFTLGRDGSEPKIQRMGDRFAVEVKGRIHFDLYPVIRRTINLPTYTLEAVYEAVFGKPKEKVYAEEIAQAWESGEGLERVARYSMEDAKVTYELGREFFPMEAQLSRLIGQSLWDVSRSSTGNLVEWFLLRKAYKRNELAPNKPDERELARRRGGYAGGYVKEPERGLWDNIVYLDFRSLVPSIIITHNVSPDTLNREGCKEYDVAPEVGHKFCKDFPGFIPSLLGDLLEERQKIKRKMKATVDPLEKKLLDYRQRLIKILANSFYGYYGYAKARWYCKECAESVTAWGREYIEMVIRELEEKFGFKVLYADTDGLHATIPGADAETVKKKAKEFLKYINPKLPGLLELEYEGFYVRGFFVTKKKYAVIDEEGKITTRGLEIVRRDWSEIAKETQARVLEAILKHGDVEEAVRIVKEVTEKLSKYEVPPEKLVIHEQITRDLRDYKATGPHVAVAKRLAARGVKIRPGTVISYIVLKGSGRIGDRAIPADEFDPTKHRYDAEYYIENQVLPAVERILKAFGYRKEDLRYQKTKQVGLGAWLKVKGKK

`C=CCO[C@H]1C[C@H](n2cnc3c(N)ncnc32)O[C@@H]1COP(=O)(O)OP(=O)(O)OP(=O)(O)O` [3′-allyl dATP, 3′allyl deoxyriboadenosine 5′-triphosphate]: the “ability to terminate DNA synthesis” value with DNA polymerase is “terminate DNA synthesis in a single termination assay, out of eight”.

For `CCN1/C(=C/C=C/C2=[N+](CCCCCC(=O)NCCSSCCC(=O)NCC#Cc3cn(C4CC(OCN=[N+]=[N-])C(COP(=O)(O)OP(=O)(O)OP(=O)(O)O)O4)c(=O)[nH]c3=O)c3ccc(S(=O)(=O)[O-])cc3C2(C)C)C(C)(C)c2cc(S(=O)(=O)O)ccc21` (centres unmarked) [compound 6], the “incorporation of the blocked nucleotide” value in test [1] (2 μM compound, 100 nM polymerase, 100 nM primer/template, template with run of 10 adenine bases, 65 C for 10 mins) is reported as “Quantitative incorporation”. The “block to further incorporation” value in test [1] (chase with the four native, unblocked nucleoside triphosphates) is listed as “effective block to further incorporation”. In addition, in test [2], the cycles of incorporation result was “six”.

For the compound `CCN1/C(=C/C=C/C2=[N+](CCCCCC(=O)NCCSSCCC(=O)NCC#Cc3cn([C@H]4CC(OCN=[N+]=[N-])[C@@H](COP(=O)(O)OP(=O)(O)OP(=O)(O)O)O4)c4nc(N)[nH]c(=O)c34)c3ccc(S(=O)(=O)[O-])cc3C2(C)C)C(C)(C)c2cc(S(=O)(=O)O)ccc21` (some centres unmarked) [compound 24], the cycles of incorporation entry in test [2] is “Two and two”.

(Values after patent publication US10513731B2, “Modified nucleotides” (Illumina Cambridge Limited, priority 2002, dated 2019).)
